Laboratory results taken from ChEMBL document CHEMBL2413047, “Identification of GNE-293, a potent and selective PI3Kδ inhibitor: navigating in vitro genotoxicity while improving potency and selectivity” (Bioorg Med Chem Lett, 2013).
≈ marks a conversion by molar mass, not a printed value. One block for each compound: values may come before it.

Assays:
[1] = Clearance in rat at 1 mg/kg, iv; type: ADME, organism-based; set-up: dose 1 mg/kg, route intravenous; conditions: in vivo
[2] = target: T1, Phosphatidylinositol 4,5-bisphosphate 3-kinase catalytic subunit delta isoform (Homo sapiens, UniProt O00329); assay: Inhibition of PI3Kdelta in human whole blood assessed as expression of CD69 in B cell preincubated for 1 hr by flow cytometry; type: tissue-based
T1 sequence (O00329 whole entry): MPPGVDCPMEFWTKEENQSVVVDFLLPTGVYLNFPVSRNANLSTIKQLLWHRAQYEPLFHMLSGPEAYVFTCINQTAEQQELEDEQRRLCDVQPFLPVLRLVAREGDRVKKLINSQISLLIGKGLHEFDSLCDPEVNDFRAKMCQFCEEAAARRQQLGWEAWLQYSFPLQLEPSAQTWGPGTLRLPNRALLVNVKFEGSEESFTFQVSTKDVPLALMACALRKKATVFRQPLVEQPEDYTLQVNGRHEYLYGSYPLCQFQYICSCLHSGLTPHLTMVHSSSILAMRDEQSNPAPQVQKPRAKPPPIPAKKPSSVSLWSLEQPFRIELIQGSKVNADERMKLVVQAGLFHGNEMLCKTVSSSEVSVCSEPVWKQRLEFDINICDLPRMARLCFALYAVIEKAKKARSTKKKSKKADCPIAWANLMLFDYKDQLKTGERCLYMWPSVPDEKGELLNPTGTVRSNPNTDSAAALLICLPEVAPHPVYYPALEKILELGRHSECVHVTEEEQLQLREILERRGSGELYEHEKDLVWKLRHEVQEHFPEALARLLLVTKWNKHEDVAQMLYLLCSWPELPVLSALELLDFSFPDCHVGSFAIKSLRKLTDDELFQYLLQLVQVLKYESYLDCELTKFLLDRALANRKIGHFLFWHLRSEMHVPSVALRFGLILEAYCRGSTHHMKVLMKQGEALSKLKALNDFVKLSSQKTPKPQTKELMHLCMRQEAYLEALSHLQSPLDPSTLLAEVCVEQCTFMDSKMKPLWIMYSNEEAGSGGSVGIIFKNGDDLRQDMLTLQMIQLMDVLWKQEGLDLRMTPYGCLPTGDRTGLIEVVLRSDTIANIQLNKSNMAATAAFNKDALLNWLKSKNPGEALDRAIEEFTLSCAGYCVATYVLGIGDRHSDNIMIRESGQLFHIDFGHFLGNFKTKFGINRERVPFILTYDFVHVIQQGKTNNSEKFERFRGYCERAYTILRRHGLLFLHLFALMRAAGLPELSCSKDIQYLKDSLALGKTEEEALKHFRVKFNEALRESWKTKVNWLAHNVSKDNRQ

[3] = target: T1, Phosphatidylinositol 4,5-bisphosphate 3-kinase catalytic subunit delta isoform; assay: Inhibition of PI3Kdelta (unknown origin) assessed as formation of PIP3 by competitive fluorescence polarization assay; conditions: read-out: Ki(app)
[4] = Genotoxicity in human lymphocytes assessed as chromosome aberration; type: toxicity, cell-based; conditions: lymphocyte
CHO-K1 = assay: Genotoxicity in CHOK1 cells by micronucleus assay; type: toxicity, cell-based, Cricetulus griseus; conditions: chinese hamster
[5] = target: Phosphatidylinositol 4-phosphate 3-kinase C2 domain-containing subunit beta (Homo sapiens) (UniProt O00750); assay: Inhibition of PI3KC2b (unknown origin) at 10 uM
Phosphatidylinositol 4-phosphate 3-kinase C2 domain-containing subunit beta (Homo sapiens), sequence (O00750 whole entry, the tested form may be a part): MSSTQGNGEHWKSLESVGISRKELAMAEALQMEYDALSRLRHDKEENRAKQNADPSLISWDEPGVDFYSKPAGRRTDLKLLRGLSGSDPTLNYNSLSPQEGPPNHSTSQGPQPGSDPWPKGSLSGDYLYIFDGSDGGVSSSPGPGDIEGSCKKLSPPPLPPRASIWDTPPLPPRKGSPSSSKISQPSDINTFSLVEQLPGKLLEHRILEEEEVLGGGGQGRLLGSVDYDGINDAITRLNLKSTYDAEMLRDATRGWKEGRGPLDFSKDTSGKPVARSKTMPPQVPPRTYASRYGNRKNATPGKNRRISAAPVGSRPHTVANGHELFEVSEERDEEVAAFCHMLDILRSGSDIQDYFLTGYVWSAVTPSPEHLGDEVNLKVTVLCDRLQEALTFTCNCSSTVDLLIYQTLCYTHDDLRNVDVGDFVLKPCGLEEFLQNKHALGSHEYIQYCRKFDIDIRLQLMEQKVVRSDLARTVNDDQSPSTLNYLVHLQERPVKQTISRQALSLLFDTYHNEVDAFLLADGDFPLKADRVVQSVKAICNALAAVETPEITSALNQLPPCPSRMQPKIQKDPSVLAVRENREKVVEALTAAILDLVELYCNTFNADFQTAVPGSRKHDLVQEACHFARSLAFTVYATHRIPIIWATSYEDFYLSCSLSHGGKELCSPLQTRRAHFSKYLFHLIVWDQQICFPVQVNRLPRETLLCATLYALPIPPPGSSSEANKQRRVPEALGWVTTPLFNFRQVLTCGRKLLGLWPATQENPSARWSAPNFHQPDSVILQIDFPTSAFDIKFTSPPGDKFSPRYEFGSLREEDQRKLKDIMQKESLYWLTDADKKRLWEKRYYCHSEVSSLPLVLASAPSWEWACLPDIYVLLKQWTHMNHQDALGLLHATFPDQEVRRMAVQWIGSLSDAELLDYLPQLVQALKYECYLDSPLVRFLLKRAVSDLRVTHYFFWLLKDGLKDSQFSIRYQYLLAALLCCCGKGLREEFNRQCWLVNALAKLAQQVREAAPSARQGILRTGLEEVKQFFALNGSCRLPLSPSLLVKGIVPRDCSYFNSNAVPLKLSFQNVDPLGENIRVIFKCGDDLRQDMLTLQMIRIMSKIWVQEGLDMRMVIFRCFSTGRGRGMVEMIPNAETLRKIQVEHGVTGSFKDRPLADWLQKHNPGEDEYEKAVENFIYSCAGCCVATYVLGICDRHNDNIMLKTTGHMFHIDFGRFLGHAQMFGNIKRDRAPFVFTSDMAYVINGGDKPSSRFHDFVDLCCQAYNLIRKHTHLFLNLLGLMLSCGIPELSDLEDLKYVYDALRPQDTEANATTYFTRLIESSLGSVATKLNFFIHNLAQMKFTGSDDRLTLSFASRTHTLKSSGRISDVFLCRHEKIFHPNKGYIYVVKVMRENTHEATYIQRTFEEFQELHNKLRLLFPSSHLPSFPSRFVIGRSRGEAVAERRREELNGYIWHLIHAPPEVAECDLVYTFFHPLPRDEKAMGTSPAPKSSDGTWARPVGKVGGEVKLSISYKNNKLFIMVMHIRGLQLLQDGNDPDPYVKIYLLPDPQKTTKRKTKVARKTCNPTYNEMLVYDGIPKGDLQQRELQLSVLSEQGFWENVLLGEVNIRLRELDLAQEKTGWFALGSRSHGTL

[6] = target: Maternal embryonic leucine zipper kinase (Homo sapiens) (UniProt Q14680); assay: Inhibition of MELK (unknown origin) at 10 uM
Maternal embryonic leucine zipper kinase (Homo sapiens), sequence (Q14680 whole entry, looked up): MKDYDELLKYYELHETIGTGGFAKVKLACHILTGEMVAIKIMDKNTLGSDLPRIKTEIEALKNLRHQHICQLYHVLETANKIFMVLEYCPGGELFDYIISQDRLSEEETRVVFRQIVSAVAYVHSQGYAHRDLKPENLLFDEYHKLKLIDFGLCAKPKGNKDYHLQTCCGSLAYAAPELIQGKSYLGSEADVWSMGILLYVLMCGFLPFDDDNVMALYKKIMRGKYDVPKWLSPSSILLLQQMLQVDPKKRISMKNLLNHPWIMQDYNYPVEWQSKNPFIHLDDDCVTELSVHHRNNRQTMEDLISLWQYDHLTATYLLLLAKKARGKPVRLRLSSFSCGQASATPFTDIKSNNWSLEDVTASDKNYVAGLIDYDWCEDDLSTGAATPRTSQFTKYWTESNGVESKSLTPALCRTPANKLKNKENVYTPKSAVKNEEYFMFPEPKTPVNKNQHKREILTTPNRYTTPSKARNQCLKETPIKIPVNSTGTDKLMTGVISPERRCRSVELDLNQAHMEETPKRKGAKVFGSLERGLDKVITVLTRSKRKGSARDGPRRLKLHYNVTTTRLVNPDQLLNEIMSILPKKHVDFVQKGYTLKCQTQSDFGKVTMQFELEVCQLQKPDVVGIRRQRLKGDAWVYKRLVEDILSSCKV

[7] = system: Serine/threonine-protein kinase B-raf (Homo sapiens), P15056 [V600E]; assay: Inhibition of B-Raf V599E mutant (unknown origin) at 10 uM
Serine/threonine-protein kinase B-raf (Homo sapiens), P15056 [V600E], sequence (P15056 whole entry V600E): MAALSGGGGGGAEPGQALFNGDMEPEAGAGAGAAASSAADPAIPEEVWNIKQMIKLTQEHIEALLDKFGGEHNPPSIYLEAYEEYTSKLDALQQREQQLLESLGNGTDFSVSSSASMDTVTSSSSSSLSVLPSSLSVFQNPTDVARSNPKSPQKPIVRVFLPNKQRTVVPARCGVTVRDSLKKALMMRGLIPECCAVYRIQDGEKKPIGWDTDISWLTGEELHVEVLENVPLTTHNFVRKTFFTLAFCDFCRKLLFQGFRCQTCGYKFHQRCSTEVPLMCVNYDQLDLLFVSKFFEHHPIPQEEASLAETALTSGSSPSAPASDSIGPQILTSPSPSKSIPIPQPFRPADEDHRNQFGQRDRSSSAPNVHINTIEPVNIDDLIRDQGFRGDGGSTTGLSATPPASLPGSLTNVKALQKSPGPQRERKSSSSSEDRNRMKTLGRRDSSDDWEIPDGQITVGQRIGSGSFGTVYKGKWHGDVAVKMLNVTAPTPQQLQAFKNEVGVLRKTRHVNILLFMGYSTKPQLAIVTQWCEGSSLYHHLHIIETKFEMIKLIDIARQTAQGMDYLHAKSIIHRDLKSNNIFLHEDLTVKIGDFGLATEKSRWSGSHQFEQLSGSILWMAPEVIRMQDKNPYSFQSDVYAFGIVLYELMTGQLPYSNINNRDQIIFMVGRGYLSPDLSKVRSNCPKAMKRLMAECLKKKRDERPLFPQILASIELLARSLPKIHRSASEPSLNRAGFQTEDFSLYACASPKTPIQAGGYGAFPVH

[8] = Kinetic solubility of the compound; type: physicochemical; conditions: read-out: Kinetic_solubility
[9] = target: Phosphatidylinositol 4,5-bisphosphate 3-kinase catalytic subunit alpha isoform (Homo sapiens, UniProt P42336); assay: Inhibition of PI3Kalpha (unknown origin) assessed as formation of PIP3 by competitive fluorescence polarization assay; conditions: read-out: Ki(app)
Phosphatidylinositol 4,5-bisphosphate 3-kinase catalytic subunit alpha isoform, sequence (P42336 whole entry, canonical isoform): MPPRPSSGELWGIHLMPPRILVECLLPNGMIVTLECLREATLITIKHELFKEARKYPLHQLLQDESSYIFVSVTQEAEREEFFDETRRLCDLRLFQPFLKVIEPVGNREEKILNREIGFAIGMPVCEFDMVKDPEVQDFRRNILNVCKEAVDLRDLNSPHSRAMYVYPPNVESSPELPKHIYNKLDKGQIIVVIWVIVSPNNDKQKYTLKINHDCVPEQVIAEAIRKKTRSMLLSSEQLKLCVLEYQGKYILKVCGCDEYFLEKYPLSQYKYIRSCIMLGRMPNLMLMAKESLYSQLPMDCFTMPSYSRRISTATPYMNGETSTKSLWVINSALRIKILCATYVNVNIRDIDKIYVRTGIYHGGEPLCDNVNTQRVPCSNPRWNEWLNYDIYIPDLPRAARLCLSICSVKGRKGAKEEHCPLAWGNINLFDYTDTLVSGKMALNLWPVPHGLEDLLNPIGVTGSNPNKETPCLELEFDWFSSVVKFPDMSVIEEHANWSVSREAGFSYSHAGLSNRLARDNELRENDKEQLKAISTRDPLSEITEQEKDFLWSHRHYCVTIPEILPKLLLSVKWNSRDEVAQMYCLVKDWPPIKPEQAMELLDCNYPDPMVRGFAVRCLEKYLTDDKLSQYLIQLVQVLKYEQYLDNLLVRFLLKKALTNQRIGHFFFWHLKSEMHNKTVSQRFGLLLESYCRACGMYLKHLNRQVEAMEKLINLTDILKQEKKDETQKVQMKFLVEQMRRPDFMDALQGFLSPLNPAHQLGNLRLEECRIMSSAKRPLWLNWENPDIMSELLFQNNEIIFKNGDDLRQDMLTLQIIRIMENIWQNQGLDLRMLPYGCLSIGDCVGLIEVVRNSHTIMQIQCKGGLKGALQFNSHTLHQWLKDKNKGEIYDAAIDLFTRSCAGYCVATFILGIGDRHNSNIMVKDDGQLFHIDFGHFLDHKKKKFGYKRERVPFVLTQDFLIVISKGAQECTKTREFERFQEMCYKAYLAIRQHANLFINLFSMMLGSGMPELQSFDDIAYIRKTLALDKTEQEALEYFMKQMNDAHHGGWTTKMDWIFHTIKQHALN

[10] = Genotoxicity in human lymphocytes assessed as chromosome aberration at […] relative to control; type: toxicity, cell-based; conditions: lymphocyte
[11] = AUC in dog at 10 mg/kg, po; type: ADME, organism-based, Canis lupus familiaris; set-up: dose 10 mg/kg, route oral; conditions: plasma
[12] = AUC in rat at 5 mg/kg, po; type: ADME, organism-based; set-up: dose 5 mg/kg, route oral; conditions: plasma
[13] = AUC in dog at 2 mg/kg, po; type: ADME, organism-based, Canis lupus familiaris; set-up: dose 2 mg/kg, route oral; conditions: plasma
[14] = Cmax in dog at 2 mg/kg, po; type: ADME, organism-based, Canis lupus familiaris; set-up: dose 2 mg/kg, route oral; conditions: in vivo
[15] = Cmax in dog at 10 mg/kg, po; type: ADME, organism-based, Canis lupus familiaris; set-up: dose 10 mg/kg, route oral; conditions: in vivo
[16] = Oral bioavailability in dog at 10 mg/kg; type: ADME, organism-based, Canis lupus familiaris; conditions: in vivo
[17] = Cmax in rat at 5 mg/kg, po; type: ADME, organism-based; set-up: dose 5 mg/kg, route oral; conditions: in vivo
[18] = Oral bioavailability in rat at 5 mg/kg; type: ADME, organism-based; conditions: in vivo
[19] = Oral bioavailability in dog at 2 mg/kg; type: ADME, organism-based, Canis lupus familiaris; conditions: in vivo
[20] = Half life in rat at 1 mg/kg, iv; type: ADME, organism-based; set-up: dose 1 mg/kg, route intravenous; conditions: in vivo
[21] = Half life in dog at 1 mg/kg, iv; type: ADME, organism-based, Canis lupus familiaris; set-up: dose 1 mg/kg, route intravenous; conditions: in vivo
[22] = Volume of distribution at steady state in dog at 1 mg/kg, iv; type: ADME, organism-based, Canis lupus familiaris; set-up: dose 1 mg/kg, route intravenous; conditions: in vivo, read-out: Vdss
[23] = Volume of distribution at steady state in rat at 1 mg/kg, iv; type: ADME, organism-based; set-up: dose 1 mg/kg, route intravenous; conditions: in vivo, read-out: Vdss
[24] = Clearance in dog at 1 mg/kg, iv; type: ADME, organism-based, Canis lupus familiaris; set-up: dose 1 mg/kg, route intravenous; conditions: in vivo
[25] = Plasma protein binding in dog; type: ADME, cell-free, Canis lupus familiaris; conditions: read-out: PPB (converted)
[26] = Plasma protein binding in rat; type: ADME, cell-free; conditions: read-out: PPB (converted)
[27] = target: Phosphatidylinositol 4-kinase beta (Homo sapiens) (UniProt Q9UBF8); assay: Inhibition of PI4Kb (unknown origin) at 1 uM
Phosphatidylinositol 4-kinase beta (Homo sapiens), sequence (Q9UBF8 2-816 limits assumed): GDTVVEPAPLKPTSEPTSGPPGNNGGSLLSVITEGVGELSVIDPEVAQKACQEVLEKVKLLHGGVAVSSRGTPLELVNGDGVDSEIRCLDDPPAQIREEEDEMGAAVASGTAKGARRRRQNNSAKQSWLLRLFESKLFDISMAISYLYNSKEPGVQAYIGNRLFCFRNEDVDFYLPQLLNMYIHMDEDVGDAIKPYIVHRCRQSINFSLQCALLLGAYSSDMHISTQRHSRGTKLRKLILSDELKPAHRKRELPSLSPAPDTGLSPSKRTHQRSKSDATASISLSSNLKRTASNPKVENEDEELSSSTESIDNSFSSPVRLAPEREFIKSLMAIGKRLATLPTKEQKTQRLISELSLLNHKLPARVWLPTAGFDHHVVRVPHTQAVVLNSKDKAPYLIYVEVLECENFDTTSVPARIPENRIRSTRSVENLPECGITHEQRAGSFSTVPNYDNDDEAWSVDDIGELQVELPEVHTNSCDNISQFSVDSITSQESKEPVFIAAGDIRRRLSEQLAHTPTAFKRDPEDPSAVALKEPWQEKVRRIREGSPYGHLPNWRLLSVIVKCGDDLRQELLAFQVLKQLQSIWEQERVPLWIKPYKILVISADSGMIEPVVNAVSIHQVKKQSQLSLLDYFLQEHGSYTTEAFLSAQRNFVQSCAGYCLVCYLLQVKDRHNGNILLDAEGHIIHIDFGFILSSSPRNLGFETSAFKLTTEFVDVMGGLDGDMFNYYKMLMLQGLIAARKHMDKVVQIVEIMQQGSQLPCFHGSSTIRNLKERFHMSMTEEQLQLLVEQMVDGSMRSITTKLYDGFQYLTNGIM

[28] = target: Serine/threonine-protein kinase B-raf (Homo sapiens) (UniProt P15056); assay: Inhibition of B-Raf (unknown origin) at 1 uM
Serine/threonine-protein kinase B-raf (Homo sapiens), sequence (P15056 whole entry): as the sequence (P15056 whole entry V600E) above, with E600V counted along it

[29] = Genotoxicity in human lymphocytes assessed as mitotic index at […] (reference value: 11.1); type: toxicity, cell-based; conditions: lymphocyte

clearance [1]: 63 mL/min/kg
IC50 [2]: 4.02 nM
Ki [3]: 0.23 nM
SMILES: CCc1nc2ccccc2n1-c1nc(N2CCOCC2)c2nc(CC3CN(C4CCS(=O)(=O)CC4)C3)n(C)c2n1

SMILES: Cc1nc2ccccc2n1-c1nc(N2CCOCC2)c2nc(CN3CCC(C(C)(C)O)CC3)n(C)c2n1
Activity [4]: Toxic
Activity (CHO-K1): Toxic

Ki [3]: 0.88 nM
SMILES: CCc1nc2ccccc2n1-c1nc(N2CCOCC2)c2nc(NC3CN(C(=O)C(C)C)C3)n(C)c2n1

IC50 [2]: 80.2 nM
Ki [3]: 0.9 nM
SMILES: CCc1nc2ccccc2n1-c1nc(N2CCOCC2)c2nc(NC3CN(C4CCS(=O)(=O)CC4)C3)n(C)c2n1

IC50 [2]: 1.79 nM
Ki [3]: 0.59 nM
SMILES: CCc1nc2ccccc2n1-c1nc(N2CCOCC2)c2nc(N(C)C3CN(C4CCS(=O)(=O)CC4)C3)n(C)c2n1

inhibition [5]: 72%
inhibition [6]: 63%
inhibition [7]: 53%
solubility kinetic [8]: 32 µM (≈ 17 µg/mL)
SMILES: CC(C)c1nc2ccccc2n1-c1nc(N2CCOCC2)c2nc(CN3CCC(C(C)(C)O)CC3)n(C)c2n1
Activity [4]: Toxic
Activity (CHO-K1): Non-toxic

Ki [9]: 236 nM
Ki [3]: 0.8 nM
SMILES: CCc1nc2ccccc2n1-c1nc(N2CCOCC2)c2nc(C(=O)N3CCN(C(C)(C)C(N)=O)CC3)n(C)c2n1

AUC [11]: 128 µM·h
AUC [12]: 7.23 µM·h
AUC [13]: 21.1 µM·h
Cmax [14]: 1740 nM
Cmax [15]: 8810 nM
bioavailability [16]: 100%
Cmax [17]: 1180 nM
bioavailability [18]: 96.2%
bioavailability [19]: 82.6%
half-life [20]: 2.59 h
half-life [21]: 11.6 h
Vd [22]: 2.2 L/kg
Vd [23]: 3.6 L/kg
clearance [1]: 19.4 mL/min/kg
clearance [24]: 2.3 mL/min/kg
fraction unbound [25]: 0.2
fraction unbound [26]: 0.183
inhibition [27]: 71%
inhibition [28]: 61%
IC50 [2]: 4.38 nM
Ki [3]: 0.47 nM
SMILES: CC(C)c1nc2ccccc2n1-c1nc(N2CCOCC2)c2nc(OC3CN(C4CCS(=O)(=O)CC4)C3)n(C)c2n1
Activity [10]: 2%
Activity [29]: 6.8%

SMILES: Cn1c(CN2CCC(C(C)(C)O)CC2)nc2c(N3CCOCC3)nc(-n3c(C4CC4)nc4ccccc43)nc21
Activity [4]: Toxic
Activity (CHO-K1): Non-toxic

SMILES: CCc1nc2ccccc2n1-c1nc(N2CCOCC2)c2sc(CN3CCC(C(C)(C)O)CC3)cc2n1
Activity [4]: Non-toxic
Activity (CHO-K1): Non-toxic

IC50 [2]: 9.96 nM
Ki [3]: 0.36 nM
SMILES: CCc1nc2ccccc2n1-c1nc(N2CCOCC2)c2nc(CC3CN(C(=O)C(C)C)C3)n(C)c2n1

Ki [3]: 1.1 nM
SMILES: CC(C)(O)C1CCN(Cc2cc3nc(-c4cccc5[nH]ncc45)nc(N4CCOCC4)c3s2)CC1
Activity [4]: Non-toxic
Activity (CHO-K1): Non-toxic

Ki [9]: 157 nM
Ki [3]: 12.7 nM
SMILES: CCc1nc2ccccc2n1-c1nc(N2CCOCC2)c2sc(C(=O)N3CCN(C(C)(C)C(N)=O)CC3)c(C)c2n1

SMILES: CCc1nc2ccccc2n1-c1nc(N2CCOCC2)c2nc(CN3CCC(C(C)(C)O)CC3)n(C)c2n1
Activity [4]: Toxic
Activity (CHO-K1): Toxic

Ki [3]: 2.3 nM
SMILES: Cn1c(CN2CCC(C(C)(C)O)CC2)nc2c(N3CCOCC3)nc(-c3cccc4[nH]ncc34)nc21

IC50 [2]: 52.8 nM
Ki [3]: 3.1 nM
SMILES: CCc1nc2ccccc2n1-c1nc(N2CCOCC2)c2nc(C(=O)N3CCC(C(C)(C)O)CC3)n(C)c2n1

SMILES: CNc1nc2ccccc2n1-c1nc(N2CCOCC2)c2nc(CN3CCC(C(C)(C)O)CC3)n(C)c2n1
Activity (CHO-K1): Toxic
